The IC50 is the midpoint of a concentration-inhibition curve.

This assay in a line: Inhibition of Rac1 GTPase in human MDA-MB-231 cells assessed as inhibition of cell proliferation treated for 72 hrs by MTT assay. In general terms: Tetrazolium dyes change colour on reduction, which living cells bring about.

As for `Cc1cc(C)cc(NC(=N)Nc2ccccc2C(F)(F)F)c1`, the IC50 was determined as 21 µM.
